This is an account of results in article PMC4790851, “Iminosugars Inhibit Dengue Virus Production via Inhibition of ER Alpha-Glucosidases—Not Glycolipid Processing Enzymes” (PLoS Neglected Tropical Diseases, 2016).

By EC50 is commonly meant the concentration needed to bring the measured effect to its halfway point. The term IC50 denotes the concentration that gives 50% inhibition.

For one data set, the system named is DENV2 strain 16681. Description: In vitro antiviral assay: infectious DENV titer from infected MDMΦs by LLC-MK2 plaque assay. The data set is classed as cell-based, dengue virus serotype 2. As to conditions: Dengue virus, DENV2, LLC-MK2, 48 h, MDMΦs infected with DENV2 MOI 1, drug 48 h, infectious titer by plaque assay; table values with 95% confidence interval in parentheses; read-out: EC50.

The next data set deals with MDMΦs. Briefly: Cytotoxicity, MTS cell proliferation assay. The data set is classed as cell-based, human. The method, then: Cytotoxicity of compounds was assessed by a cell proliferation assay for metabolic activity using a CellTiter 96 AQueous One Solution Cell Proliferation Assay (Promega) as per the manufacturer’s instructions. Briefly, 20 μl of a solution containing tetrazolium compound [3-(4,5-[…])-5-(3-carboxymethoxyphenyl)-2-(4-sulfophenyl)-2H-tetrazolium; MTS] and electron coupling reagent (phenazine ethosulfate) was added to cells covered or suspended in 100 μl of culture medium in a 96-well plate. Samples were incubated for approximately 4 hours (37°C, 5% CO2), and the absorbance at 490 nm (A490) was measured on a SpectraMax M5 microplate reader (Molecular Devices).
(In general: Formazan colour is commonly taken as a measure of viable cells.)

For data set [1], the target named is T1, Mouse ER α-glucosidase II (Mus musculus, UniProt Q8BHN3).
T1 sequence (Q8BHN3 33-944): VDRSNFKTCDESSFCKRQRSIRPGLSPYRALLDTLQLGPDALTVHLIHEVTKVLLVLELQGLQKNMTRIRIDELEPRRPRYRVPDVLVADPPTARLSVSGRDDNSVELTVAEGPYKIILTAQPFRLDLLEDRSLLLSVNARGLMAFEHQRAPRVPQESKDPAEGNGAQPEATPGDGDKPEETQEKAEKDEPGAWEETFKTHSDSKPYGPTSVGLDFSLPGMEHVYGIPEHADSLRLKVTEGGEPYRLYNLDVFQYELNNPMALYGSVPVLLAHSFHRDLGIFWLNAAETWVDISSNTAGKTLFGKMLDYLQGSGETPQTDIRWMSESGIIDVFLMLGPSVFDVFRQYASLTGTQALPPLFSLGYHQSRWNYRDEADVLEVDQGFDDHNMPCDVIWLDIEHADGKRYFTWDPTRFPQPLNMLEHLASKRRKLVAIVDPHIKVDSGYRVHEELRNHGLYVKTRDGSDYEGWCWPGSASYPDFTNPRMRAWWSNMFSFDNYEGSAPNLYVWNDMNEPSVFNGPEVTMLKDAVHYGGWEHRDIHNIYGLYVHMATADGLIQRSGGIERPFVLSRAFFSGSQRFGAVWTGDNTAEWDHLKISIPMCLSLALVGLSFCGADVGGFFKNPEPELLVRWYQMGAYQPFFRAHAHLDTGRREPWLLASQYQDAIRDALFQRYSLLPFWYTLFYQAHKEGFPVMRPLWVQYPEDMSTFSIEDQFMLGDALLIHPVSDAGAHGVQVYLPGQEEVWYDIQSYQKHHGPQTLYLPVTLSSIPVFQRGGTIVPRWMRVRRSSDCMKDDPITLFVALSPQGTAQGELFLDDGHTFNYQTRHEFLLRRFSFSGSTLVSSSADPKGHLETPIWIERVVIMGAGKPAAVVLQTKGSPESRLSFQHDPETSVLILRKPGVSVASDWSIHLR
T1 sequence (O08795 15-521 partner): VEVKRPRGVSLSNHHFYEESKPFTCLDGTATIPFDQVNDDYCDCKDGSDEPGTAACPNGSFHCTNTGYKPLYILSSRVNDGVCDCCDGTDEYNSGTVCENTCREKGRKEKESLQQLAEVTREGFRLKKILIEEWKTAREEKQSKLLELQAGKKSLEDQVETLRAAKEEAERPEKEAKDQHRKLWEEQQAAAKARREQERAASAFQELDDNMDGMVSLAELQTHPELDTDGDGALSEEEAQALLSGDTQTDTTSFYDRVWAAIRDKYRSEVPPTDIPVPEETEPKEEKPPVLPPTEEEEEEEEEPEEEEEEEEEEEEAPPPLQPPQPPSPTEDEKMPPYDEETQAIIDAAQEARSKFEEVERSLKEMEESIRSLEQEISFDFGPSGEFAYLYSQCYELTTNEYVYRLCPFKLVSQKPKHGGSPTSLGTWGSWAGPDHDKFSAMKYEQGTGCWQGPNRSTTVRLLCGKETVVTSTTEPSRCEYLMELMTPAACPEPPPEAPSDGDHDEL
Description: In vitro enzyme inhibition, 4MUG hydrolysis. To be noted: concentration required to inhibit the enzyme to 50% activity. It is filed as biochemical. The method, then: Recombinant Mus musculus ER alpha-glucosidase II inhibition was measured by incubating 20 nM enzyme with various concentrations of inhibitors in 100 mM potassium phosphate pH 7.2 at 37 °C for 5 minutes. Activity was measured by addition of 0.25 mM 4-methylumbelliferyl α-D-glucopyranoside (4MUG) (Sigma Aldrich) in black, non-binding surface-treated microplates (Corning). Fluorescence upon hydrolysis of the 4MUG was measured at λex of 355 nm and λem of 460 nm in a M5 multi-mode plate reader (Molecular Devices) at 37 °C, measuring fluorescence every minute for a total of 30 minutes. The initial velocity was fit in the linear range of measurements, and activity was normalized to the uninhibited control in order to plot activity against the inhibitor concentration. A sigmoidal, four-parameter function with a variable slope was used to determine the EC50 values in Prism (GraphPad).

Another data set addresses Rat intestinal maltase. Briefly: In vitro enzyme inhibition, glucose release from disaccharide. It is filed as biochemical. As to conditions: concentration required to inhibit the enzyme to 50% activity. The method, then:
Inhibition of glucosidases and glycosidases was detected as previously described. Briefly, assays were performed at the optimum pH of each enzyme, and appropriate disaccharide was provided as substrate for glucosidase release assays. Release of D-glucose was measured using a Glucose B-test (Wako Diagnostics). Appropriate p-nitrophenyl glycoside was added as substrate for additional glycosidase assays, and assays were stopped by adding 400 mM Na2CO3. Release of p-nitrophenol was measured spectrophotometrically at 400 nm.

The target in data set [2] is T2, Rat intestinal isomaltase (Rattus norvegicus, UniProt P23739).
T2 construct: from tissue; host or cells: rat intestine
T2 sequence (P23739 whole entry): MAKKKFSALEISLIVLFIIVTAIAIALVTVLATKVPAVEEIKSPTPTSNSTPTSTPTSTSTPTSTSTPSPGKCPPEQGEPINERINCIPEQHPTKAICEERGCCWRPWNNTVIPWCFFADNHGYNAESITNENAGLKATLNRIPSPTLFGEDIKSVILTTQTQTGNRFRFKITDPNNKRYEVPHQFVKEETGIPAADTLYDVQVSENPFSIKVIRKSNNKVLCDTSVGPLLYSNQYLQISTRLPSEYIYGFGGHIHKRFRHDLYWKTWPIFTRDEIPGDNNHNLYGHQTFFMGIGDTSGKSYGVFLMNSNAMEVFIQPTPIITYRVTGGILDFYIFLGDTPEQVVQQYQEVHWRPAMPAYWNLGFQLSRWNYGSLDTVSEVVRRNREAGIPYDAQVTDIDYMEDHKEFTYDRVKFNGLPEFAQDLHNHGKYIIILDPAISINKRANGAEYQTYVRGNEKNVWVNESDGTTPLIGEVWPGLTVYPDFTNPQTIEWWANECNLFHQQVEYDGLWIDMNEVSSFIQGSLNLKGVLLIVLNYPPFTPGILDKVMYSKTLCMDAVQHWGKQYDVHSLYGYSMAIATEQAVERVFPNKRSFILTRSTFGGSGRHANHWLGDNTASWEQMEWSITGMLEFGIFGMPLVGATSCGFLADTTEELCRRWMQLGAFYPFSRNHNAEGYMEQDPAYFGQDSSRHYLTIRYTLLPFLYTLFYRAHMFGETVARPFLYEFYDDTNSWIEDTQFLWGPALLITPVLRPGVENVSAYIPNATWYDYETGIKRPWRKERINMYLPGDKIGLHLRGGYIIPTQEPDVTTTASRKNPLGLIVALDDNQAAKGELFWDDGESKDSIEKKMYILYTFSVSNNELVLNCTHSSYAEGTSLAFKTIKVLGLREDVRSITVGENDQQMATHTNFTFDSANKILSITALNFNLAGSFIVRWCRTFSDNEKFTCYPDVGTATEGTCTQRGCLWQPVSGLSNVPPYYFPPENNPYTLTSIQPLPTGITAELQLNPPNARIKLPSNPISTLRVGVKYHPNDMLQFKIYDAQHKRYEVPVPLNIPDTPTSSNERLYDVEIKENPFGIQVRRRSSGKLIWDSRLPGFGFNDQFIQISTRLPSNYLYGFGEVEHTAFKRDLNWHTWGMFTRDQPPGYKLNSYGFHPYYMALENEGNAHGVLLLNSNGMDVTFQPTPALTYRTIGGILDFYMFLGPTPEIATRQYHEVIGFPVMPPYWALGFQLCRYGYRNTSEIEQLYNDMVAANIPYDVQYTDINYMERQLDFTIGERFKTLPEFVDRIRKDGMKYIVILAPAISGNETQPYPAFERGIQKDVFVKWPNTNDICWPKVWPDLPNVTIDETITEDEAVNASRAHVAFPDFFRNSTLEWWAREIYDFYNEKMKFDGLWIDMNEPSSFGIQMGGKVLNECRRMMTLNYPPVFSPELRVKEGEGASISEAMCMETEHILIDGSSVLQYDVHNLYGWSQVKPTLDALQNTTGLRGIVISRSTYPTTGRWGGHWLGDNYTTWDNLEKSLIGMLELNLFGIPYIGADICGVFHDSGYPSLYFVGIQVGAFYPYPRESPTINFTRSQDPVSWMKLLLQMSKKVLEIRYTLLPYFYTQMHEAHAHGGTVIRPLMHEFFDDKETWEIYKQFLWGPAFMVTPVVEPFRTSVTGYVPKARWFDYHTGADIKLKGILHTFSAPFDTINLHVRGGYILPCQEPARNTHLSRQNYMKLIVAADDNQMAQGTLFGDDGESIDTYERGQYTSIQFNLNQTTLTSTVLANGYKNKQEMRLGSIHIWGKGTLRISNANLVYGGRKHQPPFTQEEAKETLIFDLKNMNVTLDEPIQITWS
The description is as above. The data set is classed as biochemical.

The target of a further data set is T3, Rat intestinal sucrase (Rattus norvegicus, UniProt P23739).
T3 construct: from tissue; host or cells: rat intestine
T3 sequence (P23739 whole entry): as above
The data set is described as above. The data set is classed as biochemical.

For data set [3], the target named is Human lysosome α-glucosidase (Homo sapiens, UniProt P10253). Description: In vitro enzyme inhibition. The data set is classed as biochemical.
Another data set concerns the target T4, Glucosyltransferase HL60 (Homo sapiens, UniProt Q16739).
T4 construct: endogenous in cells; host or cells: HL60
T4 sequence (Q16739 1-394): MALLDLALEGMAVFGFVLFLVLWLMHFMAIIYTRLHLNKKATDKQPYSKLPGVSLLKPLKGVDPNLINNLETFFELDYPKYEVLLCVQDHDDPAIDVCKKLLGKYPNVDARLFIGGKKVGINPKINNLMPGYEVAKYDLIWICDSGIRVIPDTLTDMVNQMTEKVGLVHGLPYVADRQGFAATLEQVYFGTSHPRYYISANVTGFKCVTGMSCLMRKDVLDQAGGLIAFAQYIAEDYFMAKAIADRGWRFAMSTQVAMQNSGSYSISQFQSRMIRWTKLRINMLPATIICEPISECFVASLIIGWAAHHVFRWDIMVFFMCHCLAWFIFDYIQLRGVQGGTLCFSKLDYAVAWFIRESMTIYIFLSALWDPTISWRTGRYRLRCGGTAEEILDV
Briefly: In vitro enzyme inhibition. The data set is classed as biochemical.

Data set [4] concerns the target T5, Human lysosome α-galactosidase (Homo sapiens, UniProt P06280).
T5 sequence (P06280 32-429): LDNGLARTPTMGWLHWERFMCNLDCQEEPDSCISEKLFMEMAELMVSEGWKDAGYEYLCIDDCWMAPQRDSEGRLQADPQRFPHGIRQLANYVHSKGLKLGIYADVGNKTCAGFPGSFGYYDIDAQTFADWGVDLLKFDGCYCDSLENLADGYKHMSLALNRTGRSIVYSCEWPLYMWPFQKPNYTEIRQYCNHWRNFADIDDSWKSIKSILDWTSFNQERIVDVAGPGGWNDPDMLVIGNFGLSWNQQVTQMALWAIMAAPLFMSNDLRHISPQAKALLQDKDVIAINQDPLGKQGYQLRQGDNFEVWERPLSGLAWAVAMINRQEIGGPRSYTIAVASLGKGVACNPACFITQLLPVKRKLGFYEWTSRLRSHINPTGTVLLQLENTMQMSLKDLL
Description: In vitro enzyme inhibition. The data set is classed as biochemical.

The test system of data set [5] is monosialodihexosylganglioside (GM3) production. Description: Glycosphingolipid analysis: GM3 levels in MDMΦs by NP-HPLC. The data set is classed as cell-based, human. As to conditions: 48 h, uninfected MDMΦ, normalized to untreated controls, mean ± SD, min. 3 donors.
The next data set deals with DENV. Also noted: method as in PMID 23070155, PMID 23376501, PMID 22020302, PMID 22867971. As to conditions: post-exposure therapeutic administration; cited from earlier work.
[6] abbreviates: concentration required to inhibit the enzyme to 50% activity, read-out: IC50.

Like-named read-outs stand apart in the source and are kept apart here.

Turning to `O[C@H]1[C@H](O)[C@@H](O)CN2CC[C@H](O)[C@H]12` [Castanospermine, castanospermine], in the data set on DENV2 strain 16681, the EC50 amounted to 36.4 µM. Besides, the “MNTD (maximum non-toxic dose tested)” value in the data set with MDMΦs was 100 µM. The half-inhibitory concentration (IC50) in data set [1] was 58.9 µM; at Rat intestinal maltase, 0.37 µM; in [2], 6.1 µM; at Rat intestinal sucrase, 0.28 µM; in data set [3], 2 µM; against Glucosyltransferase HL60, over 1000 µM. In [4], this molecule came in with an IC50 of over 1000 µM. Besides, the “GM3 production (%)” value in data set [5] (100 μM (MNTD)) came out at 101.6 ± 6.7%.
As to `OC[C@H]1NC[C@H](O)[C@@H](O)[C@H]1O` [DGJ, 1-deoxygalactonojirimycin], the IC50 is over 1000 µM in [1], 362 µM at Rat intestinal maltase, over 1000 µM in data set [2] (setting [6]) and 340 µM on Rat intestinal sucrase (setting [6]).
Take `OC[C@H]1NC[C@H](O)[C@@H](O)[C@@H]1O` [DNJ, 1-Deoxynojirimycin]: the EC50 in the data set on DENV2 strain 16681 came to 308 µM. Further, the “MNTD (maximum non-toxic dose tested)” value with MDMΦs came to 10000 µM. In addition, the IC50 is 11.4 µM in data set [1], 0.2 µM against Rat intestinal maltase and 0.8 µM in data set [2] (setting [6]).
In the case of `COCCCCCCCCCN1C[C@H](O)[C@@H](O)[C@H](O)[C@H]1CO` [MON-DNJ, N-(9-methoxynonyl)-DNJ], the “protection in lethal mouse models of DENV infection” value in the data set with DENV is listed as “protection in lethal mouse models”.
With `CCCCCCCCCN1C[C@H](O)[C@@H](O)[C@H](O)[C@H]1CO` [NN-DNJ], the EC50 in the data set on DENV2 strain 16681 stood at 1.25 µM. Also, the “MNTD (maximum non-toxic dose tested)” value with MDMΦs was found to be 31.6 µM. Besides, the concentration for half-maximal inhibition (IC50) in [1] worked out at 3.1 µM; against Rat intestinal maltase, 0.46 µM; in data set [2] (setting [6]), 7.3 µM; at Rat intestinal sucrase (setting [6]) it was 0.74 µM; in data set [3] (setting [6]) it was 0.14 µM; in data set [4] (setting [6]), 765 µM. Also, the “GM3 production (%)” value in [5] (31.6 μM (MNTD)) was found to be 5.9 ± 1.2%.
